Experimental data published in patent US10329277B2, “N-(2-((2-(dimethylamino)ethyl)(methyl)amino)-4-methoxy-5-((4-(3-methyl-2-OXO-2,3-dihydro-1h-benzo[d]imidazol-1-yl)pyrimidin-2-yl)amino)phenyl)acrylamide hydrochloride as an inhibitor of epidermal growth factor receptor activity” (CHIA TAI TIANQING PHARMACEUTICAL GROUP CO., LTD., priority 2015, dated 2019).
Where a name gives a salt, the structure may show the parent alone. Read-outs that look alike come from different tables or passages of the source.

Tests used:
EGFR(WT) = biological target: T1, EGFR(WT) (Homo sapiens, UniProt P00533); test: In vitro enzymatic assay (HTRF), EGFR kinase; format: biochemical
T1 construct: made in house; host or cells: insect cell expression system
T1 sequence (P00533 25-1210): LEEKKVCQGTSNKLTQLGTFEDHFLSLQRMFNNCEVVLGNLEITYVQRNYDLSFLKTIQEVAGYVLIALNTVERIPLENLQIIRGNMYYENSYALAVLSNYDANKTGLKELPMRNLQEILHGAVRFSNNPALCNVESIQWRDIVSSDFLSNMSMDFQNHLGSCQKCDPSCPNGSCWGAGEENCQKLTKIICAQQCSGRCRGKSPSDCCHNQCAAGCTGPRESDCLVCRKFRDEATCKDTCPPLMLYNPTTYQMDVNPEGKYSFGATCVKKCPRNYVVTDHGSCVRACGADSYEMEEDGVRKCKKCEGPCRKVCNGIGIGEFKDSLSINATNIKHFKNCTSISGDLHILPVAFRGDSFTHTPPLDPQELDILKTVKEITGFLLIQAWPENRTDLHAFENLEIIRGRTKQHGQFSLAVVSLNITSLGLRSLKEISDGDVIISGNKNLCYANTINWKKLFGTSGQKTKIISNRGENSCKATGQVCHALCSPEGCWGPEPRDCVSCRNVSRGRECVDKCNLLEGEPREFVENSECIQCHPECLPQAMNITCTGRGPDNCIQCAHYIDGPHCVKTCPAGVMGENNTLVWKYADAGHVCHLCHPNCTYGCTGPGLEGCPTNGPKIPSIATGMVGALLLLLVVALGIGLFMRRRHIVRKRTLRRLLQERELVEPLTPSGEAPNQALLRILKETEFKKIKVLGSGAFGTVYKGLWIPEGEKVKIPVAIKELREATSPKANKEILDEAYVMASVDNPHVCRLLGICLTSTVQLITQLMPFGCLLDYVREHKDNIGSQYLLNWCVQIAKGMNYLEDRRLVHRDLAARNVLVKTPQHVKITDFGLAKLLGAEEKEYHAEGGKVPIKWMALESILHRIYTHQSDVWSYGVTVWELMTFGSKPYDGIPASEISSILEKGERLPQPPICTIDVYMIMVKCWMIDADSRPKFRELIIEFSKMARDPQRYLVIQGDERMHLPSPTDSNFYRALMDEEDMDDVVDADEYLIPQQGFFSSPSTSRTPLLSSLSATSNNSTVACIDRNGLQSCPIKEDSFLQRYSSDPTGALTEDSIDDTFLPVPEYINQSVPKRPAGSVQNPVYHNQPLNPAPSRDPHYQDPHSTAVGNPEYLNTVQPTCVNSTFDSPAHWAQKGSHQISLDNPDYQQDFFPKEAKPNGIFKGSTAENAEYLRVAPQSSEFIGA

[1] = test system: Human skin squamous carcinoma cell line A431; test: Cell proliferation assay, A431 (soft agar, CellTiter-Blue); format: cell-based; settings: A-431, 168 h, A431, treatment 7 days, read-out: Cell viability (IC50 nM) A431
Method: Human skin squamous carcinoma cell line A431 was cultured in DMEM supplemented with 10% fetal bovine serum and 1% penicillin-plus-streptomycin in a cell incubator (37° C., 5% CO2). In the tests of the compounds, the bottom substrate was at a concentration of 0.6%. Cells were re-suspended with 0.3% low-melting-point agar, and then seeded in a 96-well plate at a density of 2,000 cells per well (100 μl). The compounds were diluted at a 3-fold gradient with a starting concentration of 10 mM. 2 μl of each concentration was taken and added to 98 μl of culture medium, and then 5.3 μl of the mixture was added to the cell culture medium (final DMSO concentration being 0.1%, v/v). After treatment for one week (7 days), 20 μl of CellTiter-Blue® (Promega) reagent was added, and the plate was incubated at 37° C. for 4 hours. Fluorescence signals were read on Envison (Perkin Elmer), and IC50 values of the compound for inhibiting cell proliferation were calculated using GraphPad Prism 5.0.

[2] = test system: Human non-small cell lung cancer cells NCI-H1975; test: Cell proliferation assay, NCI-H1975 (CellTiter-Glo); format: cell-based; settings: NCI-H1975, treatment 72 hours, read-out: Cell viability (IC50 nM) NCI-H1975
Method: Human non-small cell lung cancer cells NCI-H1975 were cultured in RPIM-1640 culture medium supplemented with 10% fetal bovine serum and 1% penicillin-plus-streptomycin in a cell incubator (37° C., 5% CO2). The cells were seeded in a 96-well plate at a density of 2,000 cells per well (volume: 195 μl) and cultured overnight. On the next day, the compounds were added. In particular, the compounds were diluted at a 3-fold gradient with a starting concentration of 10 mM. 4 μl of each concentration was taken and added into 96 μl of culture medium. […] After treatment for 72 hours, the medium was aspirated and 30 μl of CellTiter-Glo® (Promega) reagent was added. Fluorescence signals were read on Envison (Perkin Elmer), and IC50 values of the compounds for inhibiting cell proliferation were calculated using GraphPad Prism 5.0.

[3] = Pharmacokinetic assay in rats; format: in vivo; settings: PO 10 mg/kg single dose, plasma
Method: Healthy adult male rats were subjected to single-dose intragastric administration of the test compounds at a dose of 10 mg/kg with 20% sulfobutyl ether-β-cyclodextrin as an excipient. Before the experiment, the animals were fasted overnight, and the fasting time last from 10 hrs prior to the administration to 4 hrs after the administration. At 0.25, 0.5, 1, 2, 4, 6, 8 and 24 hrs after the intragastric administration, blood sampling was conducted. Approximately 0.3 mL of whole blood was collected from retro-orbital venous sinus, and placed into tubes that contained heparin as an anticoagulant. The samples were centrifuged at 4° C. and 4000 rpm for 5 min. The plasma was transferred into centrifuge tubes, and stored at −80° C. till being analyzed. Concentrations of test compounds in the plasma samples were analyzed with non-validated liquid chromatography-tandem mass spectrometry (LC-MS/MS). Plasma concentration-time data of individual animals was analyzed using WinNonlin (Professional Edition, version 6.3; Pharsight Company) software. Non-compartmental model was introduced in concentration analysis. The pharmacokinetic parameters of the test compounds were calculated.

[4] = male rats, Hydrochloride, 10 mg/kg

SMILES	IC50 (EGFR(WT)) [nM]	IC50 [2] [nM]	also measured
C=CC(=O)Nc1cc(Nc2nccc(-n3c(=O)[nH]c4cc(C)ccc43)n2)c(OC)cc1N(C)CCN(C)C [Example 9, N-(2-((2-(dimethylamino)ethyl)(methyl)amino)-4-methoxy-5-(4-(5-methyl-2-oxo-2,3-dihydrobenzo[d]imidazol-1-yl)pyrimidin-2-ylamino)phenyl)acrylamide Hydrochloride]	3.93	–	–
C=CC(=O)Nc1cc(Nc2ncc(Cl)c(-n3c(=O)n(C)c4ccccc43)n2)c(OC)cc1N(C)CCN(C)C [Example 3, N-(5-(5-chloro-4-(3-methyl-2-oxo-2,3-dihydro-1H-benzo[d]imidazol-1-yl)pyrimidin-2-ylamino)-2-((2-(dimethylamino)ethyl)(methyl)amino)-4-methoxyphenyl) acrylamide Hydrochloride]	196	–	–
C=CC(=O)Nc1cc(Nc2nccc(-n3c(=O)n(C)c4ccccc43)n2)c(OC)cc1N(C)CCN(C)C [Example 1, N-(2-((2-(dimethylamino)ethyl)(methyl)amino)-4-methoxy-5-(4-(3-methyl-2-oxo-2,3-dihydro-1H-benzo[d]imidazol-1-yl)pyrimidin-2-ylamino)phenyl)acrylamide Hydrochloride]	9.07	2.76	IC50 [1]: 22.5 nM; Tmax ([3]; male rats): 40.2 min; AUC0-INF [3, 4]: 667 ng·h/mL; Cmax [3, 4]: 272 ng/mL; t1/2 [3, 4]: 67.2 min
C=CC(=O)Nc1cc(Nc2nccc(-n3c(=O)n(C)c4cc(Br)ccc43)n2)c(OC)cc1N(C)CCN(C)C [Example 15, N-(5-(4-(5-bromo-3-methyl-2-oxo-2,3-dihydro-1H-benzo[d]imidazole-1-yl)pyrimidin-2-ylamino)-2-((2-(dimethylamino)ethyl)(methyl)amino)-4-methoxyphenyl) acrylamide Hydrochloride]	–	6.83	IC50 [1]: 834 nM
C=CC(=O)Nc1cc(Nc2nccc(-c3cn(C)c4ccccc34)n2)c(OC)cc1N(C)CCN(C)C [AZD9291, reference compound]	–	9.08	IC50 [1]: 53.5 nM
C=CC(=O)Nc1cc(Nc2nccc(-n3c(=O)n(C)c4cc(F)ccc43)n2)c(OC)cc1N(C)CCN(C)C [Example 10, N-(2-((2-(dimethylamino)ethyl)(methyl)amino)-5-(4-(5-fluoro-3-methyl-2-oxo-2,3-dihydrobenzo[d]imidazol-1-yl)pyrimidin-2-ylamino)-4-methoxyphenyl) acrylamide Hydrochloride]	10.7	1.46	–
C=CC(=O)Nc1cc(Nc2nccc(-n3c(=O)oc4ccccc43)n2)c(OC)cc1N(C)CCN(C)C [Example 5, N-(2-((2-(dimethylamino)ethyl)(methyl)amino)-4-methoxy-5-(4-(2-oxobenzo[d]oxazol-3(2H)-yl)pyrimidin-2-ylamino)phenyl) acrylamide Hydrochloride]	44.9	17	–
COC/C=C/C(=O)Nc1cc(Nc2nccc(-n3c(=O)n(C)c4ccccc43)n2)c(OC)cc1N(C)CCN(C)C [Example 7, (E)-N-(2-((2-(dimethylamino)ethyl)(methyl)amino)-4-methoxy-5-(4-(3-methyl-2-oxo-2,3-dihydro-1H-benzo[d]imidazol-1-yl)pyrimidin-2-ylamino)phenyl)-4-methoxybut-2-enamide]	164	–	–
C=CC(=O)Nc1cc(Nc2nccc(-n3c(=O)[nH]c4ccccc43)n2)c(OC)cc1N(C)CCN(C)C [Example 2, N-(2-((2-(dimethylamino)ethyl)(methyl)amino)-4-methoxy-5-(4-(2-oxo-2,3-dihydrobenzo[d]imidazol-1-yl)pyrimidin-2-ylamino)phenyl)acrylamide Hydrochloride]	2.59	0.96	–
C=CC(=O)Nc1cc(Nc2nccc(-n3c(=O)n(C)c4ccccc43)n2)c(OC)cc1N(C)CCNC [Example 12, N-(4-methoxy-2-(methyl(2-(methylamino)ethyl)amino)-5-(4-(3-methyl-2-oxo-2,3-dihydrobenzo[d]imidazol-1-yl)pyrimidin-2-ylamino)phenyl)acrylamide Hydrochloride]	5.26	3.17	–
C=CC(=O)Nc1cc(Nc2ncc(Cl)c(-n3c(=O)[nH]c4ccccc43)n2)c(OC)cc1N(C)CCN(C)C [Example 4, N-(5-(5-chloro-4-(2-oxo-2,3-dihydro-1H-benzo[d]imidazol-1-yl)pyrimidin-2-ylamino)-2-((2-(dimethylamino)ethyl)(methyl)amino)-4-methoxyphenyl) acrylamide Hydrochloride]	20.6	2.87	–
C=CC(=O)Nc1cc(Nc2nccc(-n3c(=O)[nH]c4cc(F)ccc43)n2)c(OC)cc1N(C)CCN(C)C [Example 11, N-(2-((2-(dimethylamino)ethyl)(methyl)amino)-5-(4-(5-fluoro-2-oxo-2,3-dihydrobenzo[d]imidazol-1-yl)pyrimidin-2-ylamino)-4-methoxyphenyl)acrylamide Hydrochloride]	2.79	3.7	–
C=CC(=O)Nc1cc(Nc2nccc(-n3c(=O)n(C)c4ccccc43)n2)c(OC)cc1N(C)CCN(C)C [Example 13, N-(2-((2-(dimethylamino)ethyl)(methyl)amino)-4-methoxy-5-(4-(3-methyl-2-oxo-2,3-dihydro-1H-benzo[d]imidazol-1-yl)pyrimidin-2-ylamino)phenyl)acrylamide]	–	–	Cmax ([3]; male rats, 10 mg/kg): 94.4 ng/mL; t1/2 ([3]; male rats, 10 mg/kg): 147 min; AUC(0-inf) ([3]; male, rat, po, 10 mg/kg): 401 ng·h/mL; Tmax ([3]; rat, male rats, read-out: Tmax): 40.2 min
C=CC(=O)Nc1cc(Nc2nccc(-n3c(=O)n(C)c4cc(Cl)ccc43)n2)c(OC)cc1N(C)CCN(C)C [Example 14, N-(5-(4-(5-chloro-3-methyl-2-oxo-2,3-dihydro-1H-benzo[d]imidazole-1-yl)pyrimidin-2-ylamino)-2-((2-(dimethylamino)ethyl)(methyl)amino)-4-methoxyphenyl) acrylamide Hydrochloride]	–	4.56	IC50 [1]: 538 nM
